ChEMBL document CHEMBL3045001, “Synthesis and evaluation of analgesic, anti-inflammatory, and anticancer activities of new pyrazole-3(5)-carboxylic acid derivatives” (Med Chem Res, 2013)

Experiments:
[1] = system: HeLa; assay: Anticancer activity against Homo sapiens (human) HeLa cells assessed as inhibition of cell viability by MTT assay; type: functional, cell-based
[2] = organism: Mus musculus; assay: Acute toxicity against Mus musculus Swiss albino (mouse) assessed as morbidity after 48 hr; type: organism-based; conditions: in vivo
[3] = system: Mus musculus; assay: Analgesic activity in Mus musculus Swiss albino (mouse) assessed as inhibition of p-benzoquinone-induced abdominal writhing at 100 mg/kg, sc administered 30 min prior to PBQ injection measured after 5 min for 15 min; type: functional, Abdomen; parameters: scale not given: the % may be the effect or the level left; conditions: route subcutaneous
[4] = system: Raji; assay: Anticancer activity against Homo sapiens (human) Raji cells assessed as cell viability at 50 uM after 48 hr by MTT assay (reference value: 100 +/-4.26%); type: functional; conditions: read-out: Activity
[5] = system: HL-60; assay: Anticancer activity against Homo sapiens (human) HL60 cells assessed as cell viability at 50 uM after 48 hr by MTT assay (reference value: 100 +/-8.41%); type: functional; conditions: HL-60, 48 h, read-out: Activity
[6] = system: Mus musculus; assay: Anti-inflammatory activity in carrageenan-induced Mus musculus Swiss albino (mouse) paw edema model assessed as inhibition of paw edema at 100 mg/kg, sc administered 30 min prior to carrageenan injection measured after 180 min; type: functional; conditions: route subcutaneous
[7] = system: MCF7; assay: Anticancer activity against Homo sapiens (human) MCF7 cells assessed as cell viability at 50 uM after 24 hr by MTT assay (reference value: 100 +/-2.74%); type: functional; conditions: MCF7, 24 h, read-out: Activity
[8] = system: HL-60; assay: Anticancer activity against Homo sapiens (human) HL60 cells assessed as cell viability at 50 uM after 24 hr by MTT assay (reference value: 100 +/-3.55%); type: functional; conditions: HL-60, 24 h, read-out: Activity
[9] = system: HeLa; assay: Anticancer activity against Homo sapiens (human) HeLa cells assessed as cell viability at 50 uM after 48 hr by MTT assay (reference value: 100 +/-3.8%); type: functional; conditions: read-out: Activity
[10] = system: Mus musculus; assay: Anti-inflammatory activity in carrageenan-induced Mus musculus Swiss albino (mouse) paw edema model assessed as paw swelling at 100 mg/kg, sc administered 30 min prior to carrageenan injection measured after 360 min (reference value: 77.0 +/-3.0 x10'-2 mm); type: functional; conditions: route subcutaneous
[11] = organism: Mus musculus; assay: Acute toxicity against Mus musculus Swiss albino (mouse) assessed as mortality after 48 hr; type: organism-based; conditions: in vivo
[12] = system: Mus musculus; assay: Anti-inflammatory activity in carrageenan-induced Mus musculus Swiss albino (mouse) paw edema model assessed as inhibition of paw edema at 100 mg/kg, sc administered 30 min prior to carrageenan injection measured after 270 min; type: functional; conditions: route subcutaneous
[13] = system: Mus musculus; assay: Anti-inflammatory activity in carrageenan-induced Mus musculus Swiss albino (mouse) paw edema model assessed as inhibition of paw edema at 100 mg/kg, sc administered 30 min prior to carrageenan injection measured after 360 min; type: functional; conditions: route subcutaneous
[14] = system: Mus musculus; assay: Anti-inflammatory activity in carrageenan-induced Mus musculus Swiss albino (mouse) paw edema model assessed as paw swelling at 100 mg/kg, sc administered 30 min prior to carrageenan injection measured after 270 min (rvb = 75.0 +/-3.0 x10'-2 mm); type: functional; conditions: route subcutaneous
[15] = system: MDA-MB-231; assay: Anticancer activity against Homo sapiens (human) estrogen-independent MDA-MB-231 cells assessed as cell viability at 50 uM after 48 hr by MTT assay (reference value: 100 +/-3.71%); type: functional; conditions: MDA-MB-231, 48 h, read-out: Activity
[16] = system: Mus musculus; assay: Anti-inflammatory activity in carrageenan-induced Mus musculus Swiss albino (mouse) paw edema model assessed as paw swelling at 100 mg/kg, sc administered 30 min prior to carrageenan injection measured after 90 min (reference value: 38.0 +/-2.0 x10'-2 mm); type: functional; conditions: route subcutaneous
[17] = system: HeLa; assay: Anticancer activity against Homo sapiens (human) HeLa cells assessed as cell viability at 50 uM after 24 hr by MTT assay (reference value: 100 +/-4.13%); type: functional; conditions: read-out: Activity
[18] = system: MDA-MB-231; assay: Anticancer activity against Homo sapiens (human) estrogen-independent MDA-MB-231 cells assessed as cell viability at 50 uM after 24 hr by MTT assay (reference value: 100 +/-7.08%); type: functional; conditions: MDA-MB-231, 24 h, read-out: Activity
[19] = system: HL-60; assay: Anticancer activity against Homo sapiens (human) HL60 cells assessed as inhibition of cell viability by MTT assay; type: functional, cell-based
[20] = system: MCF7; assay: Anticancer activity against Homo sapiens (human) MCF7 cells assessed as cell viability at 50 uM after 48 hr by MTT assay (100 +/-5.08%); type: functional; conditions: MCF7, 48 h, read-out: Activity
[21] = system: Mus musculus; assay: Anti-inflammatory activity in carrageenan-induced Mus musculus Swiss albino (mouse) paw edema model assessed as inhibition of paw edema at 100 mg/kg, sc administered 30 min prior to carrageenan injection measured after 90 min; type: functional; conditions: route subcutaneous
[22] = system: Mus musculus; assay: Anti-inflammatory activity in carrageenan-induced Mus musculus Swiss albino (mouse) paw edema model assessed as paw swelling at 100 mg/kg, sc administered 30 min prior to carrageenan injection measured after 180 min (reference value: 51.0 +/-3.0 x10'-2 mm); type: functional; conditions: route subcutaneous
[23] = system: Raji; assay: Anticancer activity against Homo sapiens (human) Raji cells assessed as cell viability at 50 uM after 24 hr by MTT assay (reference value: 100 +/-5.02%); type: functional; conditions: read-out: Activity
[24] = system: Mus musculus; assay: Anti-inflammatory activity in carrageenan-induced Mus musculus Swiss albino (mouse) paw edema model assessed as paw swelling at 10 mg/kg, sc administered 30 min prior to carrageenan injection measured after 180 min (reference value: 51.0 +/-3.0 x10'-2 mm); type: functional; conditions: route subcutaneous
[25] = system: Mus musculus; assay: Anti-inflammatory activity in carrageenan-induced Mus musculus Swiss albino (mouse) paw edema model assessed as inhibition of paw edema at 10 mg/kg, sc administered 30 min prior to carrageenan injection measured after 360 min; type: functional; conditions: route subcutaneous
[26] = system: Mus musculus; assay: Anti-inflammatory activity in carrageenan-induced Mus musculus Swiss albino (mouse) paw edema model assessed as inhibition of paw edema at 10 mg/kg, sc administered 30 min prior to carrageenan injection measured after 90 min; type: functional; conditions: route subcutaneous
[27] = system: Mus musculus; assay: Anti-inflammatory activity in carrageenan-induced Mus musculus Swiss albino (mouse) paw edema model assessed as inhibition of paw edema at 10 mg/kg, sc administered 30 min prior to carrageenan injection measured after 180 min; type: functional; conditions: route subcutaneous
[28] = system: Mus musculus; assay: Anti-inflammatory activity in carrageenan-induced Mus musculus Swiss albino (mouse) paw edema model assessed as paw swelling at 10 mg/kg, sc administered 30 min prior to carrageenan injection measured after 90 min (reference value: 38.0 +/-2.0 x10'-2 mm); type: functional; conditions: route subcutaneous
[29] = system: Mus musculus; assay: Anti-inflammatory activity in carrageenan-induced Mus musculus Swiss albino (mouse) paw edema model assessed as paw swelling at 10 mg/kg, sc administered 30 min prior to carrageenan injection measured after 360 min (reference value: 77.0 +/-3.0 x10'-2 mm); type: functional; conditions: route subcutaneous
[30] = system: Mus musculus; assay: Anti-inflammatory activity in carrageenan-induced Mus musculus Swiss albino (mouse) paw edema model assessed as inhibition of paw edema at 10 mg/kg, sc administered 30 min prior to carrageenan injection measured after 270 min; type: functional; conditions: route subcutaneous
[31] = system: Mus musculus; assay: Anti-inflammatory activity in carrageenan-induced Mus musculus Swiss albino (mouse) paw edema model assessed as paw swelling at 10 mg/kg, sc administered 30 min prior to carrageenan injection measured after 270 min (reference value: 75.0 +/-3.0 x10'-2 mm); type: functional; conditions: route subcutaneous

## Cc1ccc(-c2cc(C(=O)N3CCN(Cc4ccc(C(C)C)cc4)CC3)nn2Cc2ccccc2)cc1
[1]
  IC50: 30.5 µM
[2]
  Activity: Non-toxic
[3]
  Activity: 59.2%
[4]
  viability at 50 µM: 29.6%
[5]
  viability at 50 µM: 15.5%
[6]
  inhibition in vivo at 100 mg/kg: 46.3%
[7]
  viability at 50 µM: 51.4%
[8]
  viability at 50 µM: 11.9%
[9]
  viability at 50 µM: 34.5%
[10]
  Activity: 28 ×10⁻² mm
[11]
  Activity: Non-toxic
[12]
  inhibition in vivo at 100 mg/kg: 58.9%
[13]
  inhibition in vivo at 100 mg/kg: 63.4%
[14]
  Activity: 31 ×10⁻² mm
[15]
  viability at 50 µM: 41.1%
[16]
  Activity: 34 ×10⁻² mm
[17]
  viability at 50 µM: 52.5%
[18]
  viability at 50 µM: 67.2%
[19]
  IC50: 24.4 µM
[20]
  viability at 50 µM: 56.7%
[21]
  inhibition in vivo at 100 mg/kg: 8.9%
[22]
  Activity: 28 ×10⁻² mm
[23]
  viability at 50 µM: 44.4%

## Cc1ccc(-c2cc(C(=O)Oc3ccc(-n4ccnc4)cc3)n(Cc3ccccc3)n2)cc1
[1]
  IC50: 30.4 µM
[2]
  Activity: Non-toxic
[3]
  Activity: 14.9%
[4]
  viability at 50 µM: 106%
[5]
  viability at 50 µM: 121%
[6]
  inhibition in vivo at 100 mg/kg: 15.4%
[7]
  viability at 50 µM: 67.6%
[8]
  viability at 50 µM: 108%
[9]
  viability at 50 µM: 33.9%
[10]
  Activity: 62 ×10⁻² mm
[11]
  Activity: Non-toxic
[12]
  inhibition in vivo at 100 mg/kg: 19.2%
[13]
  inhibition in vivo at 100 mg/kg: 18.8%
[14]
  Activity: 61.6 ×10⁻² mm
[15]
  viability at 50 µM: 24.4%
[16]
  Activity: 35 ×10⁻² mm
[17]
  viability at 50 µM: 36.7%
[18]
  viability at 50 µM: 33.1%
[20]
  viability at 50 µM: 52.4%
[21]
  inhibition in vivo at 100 mg/kg: 6.6%
[22]
  Activity: 43 ×10⁻² mm
[23]
  viability at 50 µM: 96.5%

## COc1ccc2c(c1)c(CC(=O)O)c(C)n2C(=O)c1ccc(Cl)cc1 [INDOMETHACIN]
[24]
  Activity: 35 ×10⁻² mm
[25]
  inhibition in vivo at 10 mg/kg: 45.7%
[26]
  inhibition in vivo at 10 mg/kg: 15.5%
[27]
  inhibition in vivo at 10 mg/kg: 31.7%
[28]
  Activity: 32 ×10⁻² mm
[29]
  Activity: 42 ×10⁻² mm
[30]
  inhibition in vivo at 10 mg/kg: 45.6%
[31]
  Activity: 41 ×10⁻² mm

## CCOC(=O)C1CCN(C(=O)c2cc(-c3ccc(C)cc3)nn2Cc2ccccc2)CC1
[2]
  Activity: Non-toxic
[3]
  Activity: 77%
[4]
  viability at 50 µM: 97.3%
[5]
  viability at 50 µM: 91.7%
[6]
  inhibition in vivo at 100 mg/kg: 33.3%
[7]
  viability at 50 µM: 54.2%
[8]
  viability at 50 µM: 102%
[9]
  viability at 50 µM: 49.9%
[10]
  Activity: 33 ×10⁻² mm
[11]
  Activity: Non-toxic
[12]
  inhibition in vivo at 100 mg/kg: 54.4%
[13]
  inhibition in vivo at 100 mg/kg: 57.6%
[14]
  Activity: 34 ×10⁻² mm
[15]
  viability at 50 µM: 64%
[16]
  Activity: 28 ×10⁻² mm
[17]
  viability at 50 µM: 53.5%
[18]
  viability at 50 µM: 96.5%
[20]
  viability at 50 µM: 88.2%
[21]
  inhibition in vivo at 100 mg/kg: 26.7%
[22]
  Activity: 34 ×10⁻² mm
[23]
  viability at 50 µM: 77%

## Cc1ccc(-c2cc(C(=O)Oc3ccc(C(C)C)cc3)nn2Cc2ccccc2)cc1
[2]
  Activity: Non-toxic
[3]
  Activity: 45.7%
[4]
  viability at 50 µM: 97%
[5]
  viability at 50 µM: 83.6%
[6]
  inhibition in vivo at 100 mg/kg: 18.7%
[7]
  viability at 50 µM: 79.6%
[8]
  viability at 50 µM: 120%
[9]
  viability at 50 µM: 54.6%
[10]
  Activity: 40 ×10⁻² mm
[11]
  Activity: Non-toxic
[12]
  inhibition in vivo at 100 mg/kg: 50.4%
[13]
  inhibition in vivo at 100 mg/kg: 47.8%
[14]
  Activity: 37 ×10⁻² mm
[15]
  viability at 50 µM: 66.2%
[16]
  Activity: 27 ×10⁻² mm
[17]
  viability at 50 µM: 79.6%
[18]
  viability at 50 µM: 106%
[20]
  viability at 50 µM: 82.6%
[21]
  inhibition in vivo at 100 mg/kg: 27.4%
[22]
  Activity: 42 ×10⁻² mm
[23]
  viability at 50 µM: 90.1%
